Results as given in publication PMC8693998 (Journal of natural products, 2021).
“Also recorded” adds a separate entry of the source.

Legend:
[1] = system: human μ-opioid receptor (MOR); settings: cited from earlier work
[2] = biological target: human μ-opioid receptor (MOR); settings: read-out: μ-opioid, Ki ± SEM; cited from earlier work
[3] = system: hot plate latency in catheterized rats; experiment: Rat hot plate antinociception assay; assay type: in vivo, Sprague–Dawley rats
[4] = biological target: human μ-opioid receptor (Homo sapiens, UniProt P35372); assay type: binding
[5] = system: human μ-opioid receptor (MOR); experiment: Human μ-opioid receptor binding affinity quoted from the literature; settings: fold lower affinity than found in the present study

human μ-opioid receptor, sequence (P35372 whole entry): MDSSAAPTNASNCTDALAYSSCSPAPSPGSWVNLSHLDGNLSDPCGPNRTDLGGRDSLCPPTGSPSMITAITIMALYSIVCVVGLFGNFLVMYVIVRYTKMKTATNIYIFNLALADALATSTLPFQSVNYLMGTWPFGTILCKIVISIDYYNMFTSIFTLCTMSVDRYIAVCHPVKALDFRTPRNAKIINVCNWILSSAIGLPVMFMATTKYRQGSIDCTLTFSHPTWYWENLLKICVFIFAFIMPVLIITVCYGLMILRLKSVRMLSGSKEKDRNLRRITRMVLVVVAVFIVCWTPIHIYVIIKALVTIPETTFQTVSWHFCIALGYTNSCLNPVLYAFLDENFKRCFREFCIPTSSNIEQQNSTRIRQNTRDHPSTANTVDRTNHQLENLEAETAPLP

## CC[C@@H]1CN2CC[C@@]3(O)C(=Nc4cccc(OC)c43)[C@@H]2C[C@@H]1/C(=C\OC)C(=O)OC [7-hydroxymitragynine (11), 7-hydroxymitragynine, reference compound]
[1]
  Type of activity at the human μ-opioid receptor: partial agonists
[2]
  Ki: 7.2 nM

## CC[C@@H]1CN2CC[C@@]3(C(=O)Nc4ccccc43)[C@@H]2C[C@@H]1/C(=C\OC)C(=O)OC [corynoxine (1), corynoxine]
[3]; rat hot plate, 0.1 mg/kg (i.v.) naltrexone after cumulative doses, 0.1 mg/kg
  Reversal of antinociception by naltrexone: fully reversed; also recorded: antagonized by naltrexone
[3]; rats, nociceptive hot plate assay, fold more potent than morphine
  Potency relative to morphine in hot plate assay: 1.8 fold

## CC[C@@H]1CN2CC[C@]3(C(=O)Nc4ccccc43)[C@@H]2C[C@@H]1/C(=C\OC)C(=O)OC [corynoxine B (2), corynoxine B]
[4]; human μ-opioid receptor, […]
  Loss of hMOR affinity relative to corynoxine (1): about 6 times
[5]
  μ-opioid affinity in a recent study relative to the present study: approximately 15 fold

## CC[C@@H]1CN2CCc3c([nH]c4cccc(OC)c34)[C@@H]2C[C@@H]1/C(=C\OC)C(=O)OC [mitragynine (6), mitragynine]
[1]
  Type of activity at the human μ-opioid receptor: partial agonists

## CC[C@@H]1CN2CC[C@]3(C(=O)Nc4cccc(OC)c43)[C@@H]2C[C@@H]1/C(=C\OC)C(=O)OC [mitragynine oxindole B (4), mitragynine oxindole B]
[4]
  Loss of hMOR affinity relative to corynoxine B (2): 16 fold

## CC[C@@H]1CN2CCc3c([nH]c4cccc(OC)c34)[C@H]2C[C@@H]1/C(=C\OC)C(=O)OC [speciociliatine (9), speciociliatine]
[1]
  Type of activity at the human μ-opioid receptor: partial agonists
